The text below walks through data of US20250163054A1, “SUBSTITUTED BICYCLIC HETEROARYL COMPOUNDS USEFUL AS INHIBITORS OF TLR9” (Bristol-Myers Squibb Company, priority 2022, published 2025).

The structures appear in SMILES notation.

What all share (format): cell-based
In experiment [1] the target is T1, human TLR7 (Homo sapiens, UniProt Q9NYK1).
T1 construct: host or cells: HEK-Blue cells (HEK293-derived reporter line)
T1 sequence (Q9NYK1 27-1049): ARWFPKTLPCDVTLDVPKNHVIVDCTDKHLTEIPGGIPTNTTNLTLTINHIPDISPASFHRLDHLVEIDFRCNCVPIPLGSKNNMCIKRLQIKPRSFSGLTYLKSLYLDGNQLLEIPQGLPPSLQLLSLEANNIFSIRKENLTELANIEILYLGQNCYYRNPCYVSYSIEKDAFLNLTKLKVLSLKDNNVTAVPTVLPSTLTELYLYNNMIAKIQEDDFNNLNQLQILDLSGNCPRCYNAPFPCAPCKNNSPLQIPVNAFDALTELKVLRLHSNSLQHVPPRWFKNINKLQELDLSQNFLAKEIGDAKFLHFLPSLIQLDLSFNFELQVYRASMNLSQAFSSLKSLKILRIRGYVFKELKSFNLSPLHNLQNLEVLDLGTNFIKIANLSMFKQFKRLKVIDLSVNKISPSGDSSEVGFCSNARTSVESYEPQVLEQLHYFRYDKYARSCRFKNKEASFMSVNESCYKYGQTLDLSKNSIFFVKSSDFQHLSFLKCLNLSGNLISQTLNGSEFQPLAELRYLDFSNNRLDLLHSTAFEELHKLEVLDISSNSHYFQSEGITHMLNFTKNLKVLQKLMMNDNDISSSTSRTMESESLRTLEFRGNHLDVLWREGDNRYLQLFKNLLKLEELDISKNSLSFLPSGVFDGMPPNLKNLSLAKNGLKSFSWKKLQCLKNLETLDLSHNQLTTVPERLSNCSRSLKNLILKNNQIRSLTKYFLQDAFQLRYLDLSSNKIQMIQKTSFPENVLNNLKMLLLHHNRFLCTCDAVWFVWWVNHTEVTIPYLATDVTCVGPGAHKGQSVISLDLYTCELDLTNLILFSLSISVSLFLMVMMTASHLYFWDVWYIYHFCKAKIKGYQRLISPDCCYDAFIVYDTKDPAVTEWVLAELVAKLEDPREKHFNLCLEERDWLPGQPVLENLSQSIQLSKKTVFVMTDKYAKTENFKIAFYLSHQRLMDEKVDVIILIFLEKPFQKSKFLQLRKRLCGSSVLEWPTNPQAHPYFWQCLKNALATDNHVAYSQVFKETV
Briefly: TLR7/8/9 Inhibition Reporter Assays (TLR7). The note with it: HEK-Blue cells overexpressing human TLR7, SEAP reporter, stimulated with TLR7 ligand gardiquimod. Summed up:
(§1)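 HEK-Blue cells overexpressing human TLR7, TLR8 or TLR9 with NF-κB/AP-1-driven SEAP reporter, pre-treated 60 min with compound ([…]). Stimulated with […] (TLR7), […] (TLR8) or ODN2006 200 nM (TLR9), then 22 h at 37° C; SEAP measured, % inhibition relative to agonist-plus-DMSO and known-inhibitor wells.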
A general note: In a reporter assay the amount or activity of a reporter protein is the signal.

For experiment [2], the target named is T2, human TLR8 (Homo sapiens, UniProt Q9NR97).
T2 construct: host or cells: HEK-Blue cells (HEK293-derived reporter line)
T2 sequence (Q9NR97 27-1041): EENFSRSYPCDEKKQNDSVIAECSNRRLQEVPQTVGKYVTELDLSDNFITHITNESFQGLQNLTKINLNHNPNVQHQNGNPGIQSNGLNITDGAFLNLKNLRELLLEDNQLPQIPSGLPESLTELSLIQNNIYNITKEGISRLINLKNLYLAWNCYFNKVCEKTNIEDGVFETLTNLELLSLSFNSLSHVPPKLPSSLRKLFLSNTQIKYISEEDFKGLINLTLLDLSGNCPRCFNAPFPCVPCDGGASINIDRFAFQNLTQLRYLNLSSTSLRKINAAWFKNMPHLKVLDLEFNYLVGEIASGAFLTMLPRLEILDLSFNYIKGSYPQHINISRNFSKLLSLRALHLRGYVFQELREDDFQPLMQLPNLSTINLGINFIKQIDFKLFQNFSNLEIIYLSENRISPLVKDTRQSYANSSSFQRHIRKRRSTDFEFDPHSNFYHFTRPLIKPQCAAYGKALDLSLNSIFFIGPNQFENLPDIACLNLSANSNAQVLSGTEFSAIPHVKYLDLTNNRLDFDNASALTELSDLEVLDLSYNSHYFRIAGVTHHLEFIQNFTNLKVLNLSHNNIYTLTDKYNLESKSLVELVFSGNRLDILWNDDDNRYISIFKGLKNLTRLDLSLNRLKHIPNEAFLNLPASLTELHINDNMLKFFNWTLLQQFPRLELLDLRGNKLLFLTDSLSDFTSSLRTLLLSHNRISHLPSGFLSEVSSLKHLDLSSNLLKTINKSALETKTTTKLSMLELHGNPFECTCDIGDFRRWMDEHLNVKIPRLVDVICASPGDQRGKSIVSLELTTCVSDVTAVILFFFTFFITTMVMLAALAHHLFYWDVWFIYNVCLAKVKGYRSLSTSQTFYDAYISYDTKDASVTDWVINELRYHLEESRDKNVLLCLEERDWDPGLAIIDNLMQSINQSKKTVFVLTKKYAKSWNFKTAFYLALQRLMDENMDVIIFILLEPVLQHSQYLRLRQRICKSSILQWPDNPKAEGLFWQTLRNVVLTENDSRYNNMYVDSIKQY
The experiment is described as follows: TLR7/8/9 Inhibition Reporter Assays (TLR8). The note with it: HEK-Blue cells overexpressing human TLR8, SEAP reporter, stimulated with TLR8 ligand R848. The procedure, abridged: as §1

Experiment [3] has as its target T3, human TLR9 (Homo sapiens, UniProt Q9NR96).
T3 construct: host or cells: HEK-Blue cells (HEK293-derived reporter line)
T3 sequence (Q9NR96 26-1032): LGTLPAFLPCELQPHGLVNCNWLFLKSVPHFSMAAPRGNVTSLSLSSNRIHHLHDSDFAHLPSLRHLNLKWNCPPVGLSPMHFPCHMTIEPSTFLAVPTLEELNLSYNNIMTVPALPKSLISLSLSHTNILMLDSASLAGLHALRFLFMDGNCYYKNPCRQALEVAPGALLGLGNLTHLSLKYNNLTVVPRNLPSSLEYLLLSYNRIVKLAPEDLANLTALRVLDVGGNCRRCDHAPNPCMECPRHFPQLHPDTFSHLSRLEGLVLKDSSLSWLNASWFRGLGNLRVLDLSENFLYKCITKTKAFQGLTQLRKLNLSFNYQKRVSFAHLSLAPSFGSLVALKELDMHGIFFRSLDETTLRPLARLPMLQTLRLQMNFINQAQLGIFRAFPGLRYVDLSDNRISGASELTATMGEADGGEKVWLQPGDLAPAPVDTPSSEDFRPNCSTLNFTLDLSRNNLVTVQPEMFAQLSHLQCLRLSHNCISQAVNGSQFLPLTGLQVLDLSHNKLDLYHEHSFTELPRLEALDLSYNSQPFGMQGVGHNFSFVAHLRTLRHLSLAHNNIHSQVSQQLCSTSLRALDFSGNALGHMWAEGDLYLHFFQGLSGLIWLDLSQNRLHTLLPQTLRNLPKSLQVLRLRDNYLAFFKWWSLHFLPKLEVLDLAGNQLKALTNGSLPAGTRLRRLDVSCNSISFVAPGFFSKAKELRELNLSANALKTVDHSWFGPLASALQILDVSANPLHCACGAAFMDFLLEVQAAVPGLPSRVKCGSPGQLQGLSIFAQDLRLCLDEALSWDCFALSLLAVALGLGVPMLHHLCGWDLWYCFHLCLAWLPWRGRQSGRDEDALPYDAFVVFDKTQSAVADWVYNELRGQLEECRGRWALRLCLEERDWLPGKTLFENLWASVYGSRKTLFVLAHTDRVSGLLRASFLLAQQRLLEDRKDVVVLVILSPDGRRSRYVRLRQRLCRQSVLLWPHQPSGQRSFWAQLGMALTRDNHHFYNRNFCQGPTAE
Briefly: TLR7/8/9 Inhibition Reporter Assays (TLR9). The note with it: HEK-Blue cells overexpressing human TLR9, SEAP reporter, stimulated with TLR9 ligand ODN2006. The procedure, abridged:
as §1

Consider `Cc1nc(-c2ccc(CN3CCN(C(C)C)CC3)cc2)cc2c1nc(-c1ccc(S(C)(=O)=O)cc1)n2C` [Example 5, 6-(4-((4-isopropylpiperazin-1-yl)methyl)phenyl)-1,4-dimethyl-2-(4-(methylsulfonyl)phenyl)-1H-imidazo[4,5-c]pyridine], for which the figures for the half-maximal inhibitory concentration (IC50) in experiment [1], in experiment [2] and in experiment [3] were 7200 nM, 22000 nM and 790 nM, respectively.
For the molecule `CC(C)CN1CCC(N2CCC(c3cc4c(cn3)nc(-c3ccc(S(C)(=O)=O)cc3)n4C)CC2)CC1` [Example 31, 6-(1′-isobutyl-[1,4′-bipiperidin]-4-yl)-1-methyl-2-(4-(methylsulfonyl)phenyl)-1H-imidazo[4,5-c]pyridine], the half-maximal inhibitory concentration (IC50) (commonly the concentration needed to halve the response being measured) is 4800 nM in experiment [1], over 25000 nM in experiment [2] and 240 nM in experiment [3].
In the same order, the values of `Cc1nc(-c2ccc(N3CCC(N(C)C)CC3)cc2)cc2c1nc(-c1ccc(S(C)(=O)=O)cc1)n2C` [Example 4, 1-(4-(1,4-dimethyl-2-(4-(methylsulfonyl)phenyl)-1H-imidazo[4,5-c]pyridin-6-yl)phenyl)-N,N-dimethylpiperidin-4-amine] are 1300 nM, 9200 nM and 120 nM.
In the same order, the values of `COc1ccc(-c2nc3cnc(-c4ccc(N5C[C@H]6CN(CC(C)C)C[C@H]6C5)cc4)cc3n2C2CC2)cc1OC` [Example 82, 1-cyclopropyl-2-(3,4-dimethoxyphenyl)-6-(4-((3aR,6aS)-5-isobutylhexahydropyrrolo[3,4-c]pyrrol-2(1H)-yl)phenyl)-1H-imidazo[4,5-c]pyridine] are 3800 nM, 4200 nM and 220 nM.
In the same order, the values of `Cc1nc(-c2ccc(CN3CCC(N4CCCC4)CC3)cc2)cc2c1nc(-c1ccc(S(C)(=O)=O)cc1)n2C` [Example 46, 1,4-dimethyl-2-(4-(methylsulfonyl)phenyl)-6-(4-((4-(pyrrolidin-1-yl)piperidin-1-yl)methyl)phenyl)-1H-imidazo[4,5-c]pyridine] are 1000 nM, 5500 nM and 58 nM.
For the molecule `COc1ccc(-c2nc3c(C)nc(-c4ccc(N5CCC6(CC5)CN(C5COC5)C6)cc4)cc3n2C)cc1OC` [Example 106, 2-(3,4-dimethoxyphenyl)-1,4-dimethyl-6-(4-(2-(oxetan-3-yl)-2,7-diazaspiro[3.5]nonan-7-yl)phenyl)-1H-imidazo[4,5-c]pyridine], the half-maximal inhibitory concentration (IC50) in experiment [1] was 4000 nM; in experiment [2], over 50000 nM; in experiment [3], 230 nM.
In the same order, the values of `CC(C)CN1C[C@@H]2CN(c3ccc(-c4cc5c(cn4)nc(-c4ccc(S(C)(=O)=O)cc4)n5C4CC4)cc3)C[C@@H]2C1` [Example 88, 1-cyclopropyl-6-(4-((3aR,6aS)-5-isobutylhexahydropyrrolo[3,4-c]pyrrol-2(1H)-yl)phenyl)-2-(4-(methylsulfonyl)phenyl)-1H-imidazo[4,5-c]pyridine] are 3400 nM, 1100 nM and 330 nM.
In the same order, the values of `Cc1nc(-c2ccc(CN3CCC(N(C)C)CC3)cc2)cc2c1nc(-c1ccc(S(C)(=O)=O)cc1)n2C` [Example 45, 1-(4-(1,4-dimethyl-2-(4-(methylsulfonyl)phenyl)-1H-imidazo[4,5-c]pyridin-6-yl)benzyl)-N,N-dimethylpiperidin-4-amine] are 1000 nM, 4900 nM and 72 nM.
